The values that follow are results of earlier work, collected in PMC7237710, “Thanatin Impairs Lipopolysaccharide Transport Complex Assembly by Targeting LptC–LptA Interaction and Decreasing LptA Stability” (Frontiers in Microbiology, 2020).

In data set [1] the test system is LptC–LptA interaction. As to conditions: yeast two-hybrid system; ref Zhang et al., 2019; cited from earlier work.
For data set [2], the system named is E. coli and other Enterobacterial species. More on the design: method as in Zhang et al., 2019. The note with it: ref Zhang et al., 2019; cited from earlier work.

Each structure is given as a SMILES string. “Also recorded” adds a separate entry of the source.

Take `Clc1cc2c(c3ncccc13)OCN(CCc1ccccc1)C2` [IMB-881]: the “disruption of LptC–LptA interaction” value in data set [1] is reported as “inhibiting LptC–LptA interaction; also recorded: disrupts LptC–LptA interaction”. Also, in data set [2], the bactericidal activity result was “bactericidal activity”.
